According to patent US20080140036A1, “Antimicrobial Composition” (priority 2004, published 2008):

What was measured:
[1] = system: S. saprophyticus NCIMB 8711; experiment: MIC of triclosan (direct contact); format: cell-based
Strain T4 MSSA [2] = experiment: MIC of triclosan (direct contact); format: cell-based, S. aureus
[3] = system: Oxford S. aureus NCTC 6571; experiment: ZOI of triclosan vapours (vapour phase); format: cell-based
S. aureus NCBC 11882 = experiment: ZOI of triclosan vapours (vapour phase); format: cell-based
S. epidermidis NCTC 7944 = experiment: ZOI of triclosan vapours (vapour phase); format: cell-based
[4] = system: S. saprophyticus NCIMB 8711; experiment: ZOI of triclosan vapours (vapour phase); format: cell-based
[5] = system: S. haemolyticus NCTC 11042; experiment: ZOI of triclosan vapours (vapour phase); format: cell-based
Strain T1 MSSA = experiment: ZOI of triclosan vapours (vapour phase); format: cell-based, S. aureus
Strain T4 MSSA [6] = experiment: ZOI of triclosan vapours (vapour phase); format: cell-based, S. aureus
MSSA (46) = experiment: ZOI of triclosan vapours (vapour phase); format: cell-based, S. aureus
MSSA (48) = experiment: ZOI of triclosan vapours (vapour phase); format: cell-based, S. aureus
[7] = system: all strains of staphylococci; experiment: MIC of triclosan (direct contact), all strains; format: cell-based
MRSA 12 = experiment: ZOI of triclosan vapours (vapour phase)
MRSA 13 = experiment: ZOI of triclosan vapours (vapour phase)
MRSA 16 = experiment: ZOI of triclosan vapours (vapour phase)
MRSA 17 = experiment: ZOI of triclosan vapours (vapour phase)
MRSA 20 = experiment: ZOI of triclosan vapours (vapour phase)
MRSA 26 = experiment: ZOI of triclosan vapours (vapour phase)
[8] = system: EMRSA m97 271 031 phage group 1; experiment: ZOI of triclosan vapours (vapour phase)
[9] = system: EMRSA m97 271 038 phage group 2; experiment: ZOI of triclosan vapours (vapour phase)
[10] = system: EMRSA j95 922 phage group 3; experiment: ZOI of triclosan vapours (vapour phase)
[11] = system: EMRSA m972 71041 phage group 5; experiment: ZOI of triclosan vapours (vapour phase)
[12] = system: EMRSA m97 271 088 phage group 6; experiment: ZOI of triclosan vapours (vapour phase)
[13] = system: EMRSA m972 710 40 phage group 9; experiment: ZOI of triclosan vapours (vapour phase)
[14] = system: EMRSA m97 271 032 phage group 10; experiment: ZOI of triclosan vapours (vapour phase)
[15] = system: EMRSA m97 271 036 phage group 11; experiment: ZOI of triclosan vapours (vapour phase)
[16] = system: EMRSA m97 271 042 phage group 12; experiment: ZOI of triclosan vapours (vapour phase)
[17] = system: EMRSA g96 139 515 phage group 15; experiment: ZOI of triclosan vapours (vapour phase)
[18] = system: EMRSA g96 136 210 phage group 17; experiment: ZOI of triclosan vapours (vapour phase)

Question: What does the source list for `Oc1cc(Cl)ccc1Oc1ccc(Cl)cc1Cl` [triclosan]?
Answer: MIC [1]: 2 Mg ml^−1−; MIC (Strain T4 MSSA [2]): 0.25 Mg ml^−1−; ZOI Average ([3]; average): 51 mm; ZOI 1 ([3]; replicate 1): 50 mm; ZOI 2 ([3]; replicate 2): 52 mm; ZOI Average (S. aureus NCBC 11882; average): 48 mm; ZOI 1 (S. aureus NCBC 11882; replicate 1): 47 mm; ZOI 2 (S. aureus NCBC 11882; replicate 2): 49 mm; ZOI Average (S. epidermidis NCTC 7944; average): 50.5 mm; ZOI 1 (S. epidermidis NCTC 7944; replicate 1): 50 mm; ZOI 2 (S. epidermidis NCTC 7944; replicate 2): 51 mm; ZOI Average ([4]; average): 37.5 mm; ZOI 1 ([4]; replicate 1): 33 mm; ZOI 2 ([4]; replicate 2): 42 mm; ZOI Average ([5]; average): 46 mm; ZOI 1 ([5]; replicate 1): 48 mm; ZOI 2 ([5]; replicate 2): 44 mm; ZOI Average (Strain T1 MSSA; average): 45.5 mm; ZOI 1 (Strain T1 MSSA; replicate 1): 46 mm; ZOI 2 (Strain T1 MSSA; replicate 2): 45 mm; ZOI Average (Strain T4 MSSA [6]; average): 51 mm; ZOI 1 (Strain T4 MSSA [6]; replicate 1): 50 mm; ZOI 2 (Strain T4 MSSA [6]; replicate 2): 52 mm; ZOI Average (MSSA (46); average): 45 mm; ZOI 1 (MSSA (46); replicate 1): 45 mm; ZOI 2 (MSSA (46); replicate 2): 45 mm; ZOI Average (MSSA (48); average): 48.5 mm; ZOI 1 (MSSA (48); replicate 1): 49 mm; ZOI 2 (MSSA (48); replicate 2): 48 mm; concentration able to inhibit all strains of staphylococci [7]: 2 µg/mL; ZOI Average (MRSA 12; average): 44.5 mm; ZOI 1 (MRSA 12; replicate 1): 45 mm; ZOI 2 (MRSA 12; replicate 2): 44 mm; ZOI Average (MRSA 13; average): 47 mm; ZOI 1 (MRSA 13; replicate 1): 47 mm; ZOI 2 (MRSA 13; replicate 2): 47 mm; ZOI Average (MRSA 16; average): 55.5 mm; ZOI 1 (MRSA 16; replicate 1): 55 mm; ZOI 2 (MRSA 16; replicate 2): 56 mm; ZOI Average (MRSA 17; average): 32 mm; ZOI 1 (MRSA 17; replicate 1): 31 mm; ZOI 2 (MRSA 17; replicate 2): 33 mm; ZOI Average (MRSA 20; average): 55 mm; ZOI 1 (MRSA 20; replicate 1): 55 mm; ZOI 2 (MRSA 20; replicate 2): 55 mm; ZOI Average (MRSA 26; average): 40 mm; ZOI 1 (MRSA 26; replicate 1): 40 mm; ZOI 2 (MRSA 26; replicate 2): 40 mm; ZOI Average ([8]; average): 41 mm; ZOI 1 ([8]; replicate 1): 42 mm; ZOI 2 ([8]; replicate 2): 40 mm; ZOI Average ([9]; average): 57 mm; ZOI 1 ([9]; replicate 1): 57 mm; ZOI 2 ([9]; replicate 2): 57 mm; ZOI Average ([10]; average): 54 mm; ZOI 1 ([10]; replicate 1): 55 mm; ZOI 2 ([10]; replicate 2): 53 mm; ZOI Average ([11]; average): 55 mm; ZOI 1 ([11]; replicate 1): 55 mm; ZOI 2 ([11]; replicate 2): 55 mm; ZOI Average ([12]; average): 52 mm; ZOI 1 ([12]; replicate 1): 52 mm; ZOI 2 ([12]; replicate 2): 52 mm; ZOI Average ([13]; average): 55 mm; ZOI 1 ([13]; replicate 1): 55 mm; ZOI 2 ([13]; replicate 2): 55 mm; ZOI Average ([14]; average): 49 mm; ZOI 1 ([14]; replicate 1): 49 mm; ZOI 2 ([14]; replicate 2): 49 mm; ZOI Average ([15]; average): 52 mm; ZOI 1 ([15]; replicate 1): 52 mm; ZOI 2 ([15]; replicate 2): 52 mm; ZOI Average ([16]; average): 45 mm; ZOI 1 ([16]; replicate 1): 45 mm; ZOI 2 ([16]; replicate 2): 45 mm; ZOI Average ([17]; average): 47 mm; ZOI 1 ([17]; replicate 1): 47 mm; ZOI 2 ([17]; replicate 2): 47 mm; ZOI Average ([18]; average): 47 mm; ZOI 1 ([18]; replicate 1): 47 mm; ZOI 2 ([18]; replicate 2): 47 mm
